Literature values as cited in patent US20140256766A1, “TRANSMUCOSAL DRUG DELIVERY SYSTEM” (priority 2013, published 2014).

Legend:
[1] = smoking a cigarette (WO 03/055486 A1)
[2] = pH 6.8

SMILES: CN1CCCC1c1cccnc1 (centres unmarked) [nicotine]
- time to peak plasma nicotine levels [1]: about 10 minutes
- nicotine in the free base form [2]: about 10%
